Source: paper PMC4503722, “Novel Phenotypic Outcomes Identified for a Public Collection of Approved Drugs from a Publicly Accessible Panel of Assays” (PLoS ONE, 2015)
Where two headings read alike, the source gives them in different places.

Legend:
[1] = test system: endothelial tube formation in co-cultures of ECFCs and ADSCs treated with VEGF; assay: cells; assay type: cell-based, human; conditions: for IC50: read-out: VEGF_ADSC\ECFC Angio CD31 TubeArea summarized IC50
HCT116 = assay: cells; assay type: cell-based; conditions: for IC50: read-out: Basal_Viability ATP HCT116 summarized IC50
SW480 = assay: cells; assay type: cell-based; conditions: for IC50: read-out: Basal_Viability ATP SW480 summarized IC50
RKO = assay: cells; assay type: cell-based; conditions: for IC50: read-out: Basal_Viability ATP RKO summarized IC50
DLD-1 = assay: cells; assay type: cell-based; conditions: for IC50: read-out: Basal_Viability ATP DLD-1 summarized IC50
HT-29 = assay: cells; assay type: cell-based; conditions: for IC50: read-out: Basal_Viability ATP HT-29 summarized IC50
SNU-C1 = assay: cells; assay type: cell-based; conditions: for IC50: read-out: Basal_Viability ATP SNU-C1 summarized IC50
[2] = test system: ECFC/ADSC co-culture cell nuclei number; conditions: for IC50: read-out: VEGF_ADSC\ECFC Angio Hoechst NucArea summarized IC50
Colo320 = assay: cells; assay type: cell-based; conditions: for IC50: read-out: Basal_Viability ATP Colo 320 summarized IC50
HeLa cells = assay: cells; assay type: cell-based
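Wherever Hela CellCycMod PI 4N summarized IC50 is given: value tracks stimulation of 4N DNA content.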

## Cc1cc(C(C#N)c2ccc(Cl)cc2)c(Cl)cc1NC(=O)c1cc(I)cc(I)c1O (stereo not drawn) [NCGC00166312-02]
[1]
  VEGF_ADSC\ECFC Angio CD31 TubeArea IC50/EC50: > 10 µM
HCT116
  Basal_Viability ATP HCT116 IC50/EC50: 0.09775 µM
SW480
  Basal_Viability ATP SW480 IC50/EC50: 0.046 µM
RKO
  Basal_Viability ATP RKO IC50/EC50: 0.1971 µM
DLD-1
  Basal_Viability ATP DLD-1 IC50/EC50: 0.069 µM
HT-29
  Basal_Viability ATP HT-29 IC50/EC50: 0.1255 µM
SNU-C1
  Basal_Viability ATP SNU-C1 IC50/EC50: 0.0438 µM
[2]
  VEGF_ADSC\ECFC Angio Hoechst NucArea IC50/EC50: 7.36 µM
Colo320
  Basal_Viability ATP Colo 320 IC50/EC50: 0.116 µM

## C/C(=C(/OCCOc1ccc(Cl)cc1)c1ccc(Cl)cc1Cl)n1ccnc1 [NCGC00249921-01]
[1]
  VEGF_ADSC\ECFC Angio CD31 TubeArea IC50/EC50: 5.8398 µM
HCT116
  Basal_Viability ATP HCT116 IC50/EC50: > 6.6667 µM
SW480
  Basal_Viability ATP SW480 IC50/EC50: 8.4611 µM
RKO
  Basal_Viability ATP RKO IC50/EC50: > 6.6667 µM
DLD-1
  Basal_Viability ATP DLD-1 IC50/EC50: 4.1804 µM
HT-29
  Basal_Viability ATP HT-29 IC50/EC50: > 6.667 µM
SNU-C1
  Basal_Viability ATP SNU-C1 IC50/EC50: 2.3457 µM
[2]
  VEGF_ADSC\ECFC Angio Hoechst NucArea IC50/EC50: 9.416 µM
Colo320
  Basal_Viability ATP Colo 320 IC50/EC50: 5.8551 µM

## CN(C)c1ccc(C(=C2C=CC(=[N+](C)C)C=C2)c2ccc(N(C)C)cc2)cc1 [NCGC00091112-09]
[1]
  IC50: 0.186 µM
HCT116; assay number 25, basal
  IC50: 0.514 µM
SW480; assay number 24, basal
  IC50: 0.528 µM
RKO; assay number 29, basal
  IC50: 0.994 µM
DLD-1; assay number 23, basal
  IC50: 0.471 µM
HT-29; assay number 28, basal
  IC50: 0.467 µM
SNU-C1; assay number 30, basal
  IC50: 0.394 µM
[2]
  IC50: 1.83 µM
Colo320; assay number 27, basal
  IC50: 2.05 µM

## O=C(O)C1(C(=O)O)CCC1.[NH2-].[NH2-].[Pt+2] [NCGC00263858-02]
[1]
  VEGF_ADSC\ECFC Angio CD31 TubeArea IC50/EC50: > 10 µM
HCT116; assay number 25, basal
  Basal_Viability ATP HCT116 IC50/EC50: > 20 µM
SW480; assay number 24, basal
  Basal_Viability ATP SW480 IC50/EC50: > 20 µM
RKO; assay number 29, basal
  Basal_Viability ATP RKO IC50/EC50: > 20 µM
DLD-1; assay number 23, basal
  Basal_Viability ATP DLD-1 IC50/EC50: > 20 µM
HT-29; assay number 28, basal
  Basal_Viability ATP HT-29 IC50/EC50: > 20 µM
SNU-C1; assay number 30, basal
  Basal_Viability ATP SNU-C1 IC50/EC50: > 20 µM
[2]
  VEGF_ADSC\ECFC Angio Hoechst NucArea IC50/EC50: > 10 µM
Colo320; assay number 27, basal
  Basal_Viability ATP Colo 320 IC50/EC50: > 20 µM

## Oc1ccc(Cl)cc1Cc1cc(Cl)ccc1O [NCGC00091325-09]
[1]
  IC50: 2.32 µM
HCT116
  IC50: 1.55 µM
SW480
  IC50: 2.5 µM
RKO
  IC50: 1.93 µM
DLD-1
  IC50: 0.862 µM
HT-29
  IC50: 4.69 µM
SNU-C1
  IC50: 0.546 µM
[2]
  IC50: 6 µM
Colo320
  IC50: 1.21 µM

## Fc1ccc(C(OCCN2CCN(CCCc3ccccc3)CC2)c2ccc(F)cc2)cc1 [NCGC00015300-10]
HCT116; basal
  IC50/EC50, Basal_Viability ATP HCT116 (assay number 25): 4.8718 µM
SW480; basal
  IC50/EC50, Basal_Viability ATP SW480 (assay number 24): 2.068 µM
HeLa cells; 2N
  IC50/EC50, Hela CellCycMod PI 2N (assay number 14): > 10 µM
HeLa cells; 4N
  IC50/EC50, Hela CellCycMod PI 4N (assay number 16): > 10 µM
HeLa cells; Cell Number
  IC50/EC50, Hela CellCycMod PI Cell Number (assay number 18): 3.2 µM
HeLa cells; MI
  IC50/EC50, Hela CellCycMod PI MI (assay number 17): > 10 µM
HeLa cells; S Phase
  IC50/EC50, Hela CellCycMod PI S Phase (assay number 15): > 10 µM
RKO; basal
  IC50/EC50, Basal_Viability ATP RKO (assay number 29): 0.113 µM
DLD-1; basal
  IC50/EC50, Basal_Viability ATP DLD-1 (assay number 23): 0.9032 µM
HT-29; basal
  IC50/EC50, Basal_Viability ATP HT-29 (assay number 28): 1.4851 µM
SNU-C1; basal
  IC50/EC50, Basal_Viability ATP SNU-C1 (assay number 30): 1.817 µM
Colo320; basal
  IC50/EC50, Basal_Viability ATP Colo 320 (assay number 27): > 20 µM

## Cc1c(C)c2c(c(C)c1O)CC[C@@](C)(CCC[C@H](C)CCC[C@H](C)CCCC(C)C)O2 [NCGC00142625-10]
[1]
  IC50: > 10 µM
HCT116; assay number 25, basal
  IC50: > 20 µM
SW480; assay number 24, basal
  IC50: > 20 µM
RKO; assay number 29, basal
  IC50: 2.61 µM
DLD-1; assay number 23, basal
  IC50: > 20 µM
HT-29; assay number 28, basal
  IC50: > 20 µM
SNU-C1; assay number 30, basal
  IC50: > 20 µM
[2]
  IC50: > 10 µM
Colo320; assay number 27, basal
  IC50: > 20 µM

## NCCCC[C@H](N[C@@H](CCc1ccccc1)C(=O)O)C(=O)N1CCC[C@H]1C(=O)O [NCGC00179623-04]
HCT116; assay number 25, basal
  Basal_Viability ATP HCT116 IC50/EC50: 3.3925 µM
SW480; assay number 24, basal
  Basal_Viability ATP SW480 IC50/EC50: 4.028 µM
HeLa cells; assay number 14, 2N
  Hela CellCycMod PI 2N IC50/EC50: > 10 µM
HeLa cells; assay number 15, S phase
  Hela CellCycMod PI S Phase IC50/EC50: > 10 µM
HeLa cells; assay number 16, 4N
  Hela CellCycMod PI 4N IC50/EC50: > 10 µM
HeLa cells; assay number 17, MI
  Hela CellCycMod PI MI IC50/EC50: > 10 µM
HeLa cells; assay number 18, cell number
  Hela CellCycMod PI Cell Number IC50/EC50: > 10 µM
RKO; assay number 29, basal
  Basal_Viability ATP RKO IC50/EC50: 8.8772 µM
DLD-1; assay number 23, basal
  Basal_Viability ATP DLD-1 IC50/EC50: 2.2356 µM
HT-29; assay number 28, basal
  Basal_Viability ATP HT-29 IC50/EC50: > 6.667 µM
SNU-C1; assay number 30, basal
  Basal_Viability ATP SNU-C1 IC50/EC50: 2.5347 µM
Colo320; assay number 27, basal
  Basal_Viability ATP Colo 320 IC50/EC50: > 20 µM

## CC[n+]1c(-c2ccccc2)c2cc(N)ccc2c2ccc(N)cc21 [NCGC00091387-08]
HCT116; assay number 25, basal
  IC50: 4.44 µM
SW480; assay number 24, basal
  IC50: > 20 µM
HeLa cells; assay number 14, 2N, read-out: Hela CellCycMod PI 2N summarized IC50
  IC50: > 10 µM
HeLa cells; assay number 15, S phase, read-out: Hela CellCycMod PI S Phase summarized IC50
  IC50: > 10 µM
HeLa cells; assay number 16, 4N, read-out: Hela CellCycMod PI 4N summarized IC50
  IC50: > 10 µM
HeLa cells; assay number 17, MI, read-out: Hela CellCycMod PI MI summarized IC50
  IC50: > 10 µM
HeLa cells; assay number 18, cell number, read-out: Hela CellCycMod PI Cell Number summarized IC50
  IC50: > 10 µM
RKO; assay number 29, basal
  IC50: 3.35 µM
DLD-1; assay number 23, basal
  IC50: > 20 µM
HT-29; assay number 28, basal
  IC50: > 20 µM
SNU-C1; assay number 30, basal
  IC50: > 20 µM
Colo320; assay number 27, basal
  IC50: > 20 µM
